This is an account of results in patent publication US9302999B2, “Substituted triazoles as herbicides” (E. I. DU PONT DE NEMOURS AND COMPANY, priority 2012, dated 2016).

Like-named read-outs stand apart in the source and are kept apart here.

Holding throughout (assay type): in vivo
Assay [1] relates to crabgrass, large (large crabgrass, Digitaria sanguinalis). Put plainly: Test A pre-/postemergence: crabgrass, large. Particulars: Digitaria sanguinalis, 240 h; for pest or weed control at 125 g/ha: 125 g ai/ha; for pest or weed control at 500 g/ha: 500 g ai/ha. The procedure, abridged:
(§1)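 Rating scale 0–100 (100 = complete control), visual, ~10 days after application in the greenhouse. Applications: preemergence directed soil spray; postemergence at 1–2 leaves.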

The test system of assay [2] is morningglory (Ipomoea spp.). Nature of the assay: Test A pre-/postemergence: morningglory. As to conditions: Ipomoea, 240 h; for pest or weed control at 125 g/ha: 125 g ai/ha; for pest or weed control at 500 g/ha: 500 g ai/ha. The method, boiled down: as §1
Assay [3] concerns foxtail, giant (giant foxtail, Setaria faberii). Put plainly: Test A pre-/postemergence: foxtail, giant. As to conditions: Setaria faberi, 240 h; for pest or weed control at 125 g/ha: 125 g ai/ha; for pest or weed control at 500 g/ha: 500 g ai/ha. The procedure, abridged: as §1
Assay [4] concerns velvetleaf (Abutilon theophrasti). Put plainly: Test A pre-/postemergence: velvetleaf. As to conditions: Abutilon theophrasti, 240 h; for pest or weed control at 125 g/ha: 125 g ai/ha; for pest or weed control at 500 g/ha: 500 g ai/ha. The procedure, abridged:
as §1

The mark [5] stands for this setting: post-emergence, Postemergence, 0 to 100 scale, 0 is no effect, 100 is complete control, read-out: Crabgrass, Large plant response rating.
[6] abbreviates: post-emergence, Postemergence, visual rating on 0 to 100 scale (0 no effect, 100 complete control), approximately ten days, read-out: Crabgrass, Large plant response rating.
The mark [7] stands for this setting: pre-emergence, Preemergence, 0 to 100 scale where 0 is no effect and 100 is complete control, read-out: Plant response rating, Crabgrass, Large.
Where [8] appears, read: pre-emergence, Preemergence, 0 to 100 scale (0 no effect, 100 complete control), read-out: Plant response rating, Crabgrass, Large.
Setting [9] is: post-emergence, Postemergence, 0 to 100 scale, 0 is no effect, 100 is complete control, read-out: Morningglory plant response rating.
Where [10] appears, read: post-emergence, Postemergence, visual rating on 0 to 100 scale (0 no effect, 100 complete control), approximately ten days, read-out: Morningglory plant response rating.
The mark [11] stands for this setting: pre-emergence, Preemergence, 0 to 100 scale where 0 is no effect and 100 is complete control, read-out: Plant response rating, Morningglory.
[12] abbreviates: pre-emergence, Preemergence, 0 to 100 scale (0 no effect, 100 complete control), read-out: Plant response rating, Morningglory.
Where [13] appears, read: post-emergence, Postemergence, 0 to 100 scale, 0 is no effect, 100 is complete control, read-out: Foxtail, Giant plant response rating.
[14] abbreviates: post-emergence, Postemergence, visual rating on 0 to 100 scale (0 no effect, 100 complete control), approximately ten days, read-out: Foxtail, Giant plant response rating.
Where [15] appears, read: pre-emergence, Preemergence, 0 to 100 scale where 0 is no effect and 100 is complete control, read-out: Plant response rating, Foxtail, Giant.
Setting [16] is: pre-emergence, Preemergence, 0 to 100 scale (0 no effect, 100 complete control), read-out: Plant response rating, Foxtail, Giant.
The mark [17] stands for this setting: post-emergence, Postemergence, 0 to 100 scale, 0 is no effect, 100 is complete control, read-out: Velvetleaf plant response rating.
The mark [18] stands for this setting: post-emergence, Postemergence, visual rating on 0 to 100 scale (0 no effect, 100 complete control), approximately ten days, read-out: Velvetleaf plant response rating.
Where [19] appears, read: pre-emergence, Preemergence, 0 to 100 scale where 0 is no effect and 100 is complete control, read-out: Plant response rating, Velvetleaf.
[20] abbreviates: pre-emergence, Preemergence, 0 to 100 scale (0 no effect, 100 complete control), read-out: Plant response rating, Velvetleaf.
Where [21] appears, read: pre-emergence, Preemergence, 0 to 100 scale, 0 is no effect, 100 is complete control, read-out: Plant response rating, Crabgrass, Large.
Setting [22] is: pre-emergence, Preemergence, 0 to 100 scale, 0 is no effect, 100 is complete control, read-out: Plant response rating, Morningglory.
[23] abbreviates: pre-emergence, Preemergence, 0 to 100 scale, 0 is no effect, 100 is complete control, read-out: Plant response rating, Foxtail, Giant.
[24] abbreviates: pre-emergence, Preemergence, 0 to 100 scale, 0 is no effect, 100 is complete control, read-out: Plant response rating, Velvetleaf.

`COCc1nn(-c2ccc(C(F)(F)F)cc2)nc1Oc1cccc(OC(F)(F)F)c1` [Compound 115, 4-(methoxymethyl)-5-[3-(trifluoromethoxy)phenoxy]-2-[4-(trifluoromethyl)phenyl]-2H-1,2,3-triazole]: the pest or weed control at 125 g/ha is 50% in assay [1] (setting [5]); 80% in assay [1] (setting [7]); 90% in assay [2] (setting [9]); 0% in assay [2] (setting [11]); 30% in assay [3] (setting [13]); 60% in assay [3] (setting [15]). The results for the pest or weed control at 125 g/ha in assay [4] (setting [17]) and in assay [4] (setting [19]) were 10% and 0%, respectively. Further, the pest or weed control at 500 g/ha turned out to be 80% in assay [1] (setting [6]); 100% in assay [1] (setting [8]); 100% in assay [2] (setting [10]); 10% in assay [2] (setting [12]); 60% in assay [3] (setting [14]); 100% in assay [3] (setting [16]). In addition, the pest or weed control at 500 g/ha was 30% in assay [4] (setting [18]) and 20% in assay [4] (setting [20]).
With `Cc1nn(-c2ccc(F)cc2F)nc1Cc1ccnc(C(F)(F)F)c1` [Compound 54, 4-[[2-(2,4-difluorophenyl)-5-methyl-2H-1,2,3-triazol-4-yl]methyl]-2-(trifluoromethyl)pyridine], the pest or weed control at 125 g/ha was 80% in assay [1] (setting [5]); 100% in assay [1] (setting [8]); 60% in assay [2] (setting [12]); 80% in assay [3] (setting [13]); 100% in assay [3] (setting [16]); 90% in assay [4] (setting [17]). The pest or weed control at 125 g/ha in assay [4] (setting [20]) was found to be 30%. Besides, the pest or weed control at 500 g/ha stood at 90% in assay [1] (setting [6]); 100% in assay [1] (setting [21]); 90% in assay [2] (setting [22]); 90% in assay [3] (setting [14]); 100% in assay [3] (setting [23]); 100% in assay [4] (setting [18]). Also, the pest or weed control at 500 g/ha in assay [4] (setting [24]) amounted to 60%.
Turning to `Cc1nn(-c2ccc(C(F)(F)F)cc2)nc1Oc1csc(C(F)(F)F)c1` [Compound 1, 4-methyl-2-[4-(trifluoromethyl)phenyl]-5-[[5-(trifluoromethyl)-3-thienyl]oxy]-2H-1,2,3-triazole], the pest or weed control at 125 g/ha in assay [1] (setting [5]) was 70%; in assay [1] (setting [8]), 70%; in assay [2] (setting [9]), 50%; in assay [2] (setting [12]), 0%; in assay [3] (setting [13]) it was 50%; in assay [3] (setting [16]), 60%. For the same compound, the pest or weed control at 125 g/ha in assay [4] (setting [17]) worked out at 30%; in assay [4] (setting [20]), 0%. The pest or weed control at 500 g/ha in assay [1] (setting [6]) worked out at 90%; in assay [1] (setting [21]), 100%; in assay [2] (setting [10]), 100%; in assay [2] (setting [22]) it was 20%; in assay [3] (setting [14]), 70%; in assay [3] (setting [23]) it was 100%. Besides, the pest or weed control at 500 g/ha worked out at 70% in assay [4] (setting [18]) and 10% in assay [4] (setting [24]).
Take `FCc1nn(-c2ccc(C(F)(F)F)cc2)nc1Oc1cccc(OC(F)(F)F)c1` [Compound 116, 4-(fluoromethyl)-5-[3-(trifluoromethoxy)phenoxy]-2-[4-(trifluoromethyl)phenyl]-2H-1,2,3-triazole]: the pest or weed control at 125 g/ha in assay [1] (setting [5]) was 40%; in assay [1] (setting [7]), 70%; in assay [2] (setting [9]), 70%; in assay [2] (setting [11]), 0%; in assay [3] (setting [13]), 30%; in assay [3] (setting [15]), 60%. Moreover, the pest or weed control at 125 g/ha turned out to be 20% in assay [4] (setting [17]) and 0% in assay [4] (setting [19]). In addition, the pest or weed control at 500 g/ha in assay [1] (setting [6]) is 80%; in assay [1] (setting [8]), 100%; in assay [2] (setting [10]), 100%; in assay [2] (setting [12]), 10%; in assay [3] (setting [14]), 50%; in assay [3] (setting [16]), 90%. The figures for the pest or weed control at 500 g/ha in assay [4] (setting [18]) and in assay [4] (setting [20]) were 50% and 20%, respectively.
